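Tested at 5 concentrations; 48 h exposure; 96-well plates; endpoints linearly interpolated, else capped at highest concentration. GI50 is the concentration that inhibits growth by half.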 Active and inactive are the calls of the source. Cut-off read from the data, not from the text of the source: active = GI50 up to about 1.1 µM and inactive = higher.
Columns and labels:
Test in all cases: NCI-60 cell line screen, 48 h
786-0 = test system: 786-0
A498 = test system: A498
ACHN = test system: ACHN
CAKI-1 = test system: CAKI-1
COLO 205 = test system: COLO 205
EKVX = test system: EKVX
HCC 2998 = test system: HCC 2998
HCT-15 = test system: HCT-15
HL-60 = test system: HL-60
HOP-62 = test system: HOP-62
IGROV-1 = test system: IGROV-1
MDA-MB-435 = test system: MDA-MB-435
MOLT-4 = test system: MOLT-4
NCI-H23 = test system: NCI-H23
NCI/ADR-RES = test system: NCI/ADR-RES
OVCAR-3 = test system: OVCAR-3
SF-268 = test system: SF-268
SF-295 = test system: SF-295
T47D = test system: T47D
UO-31 = test system: UO-31

Row | SMILES | GI50 (786-0) | GI50 (A498) | GI50 (ACHN) | GI50 (CAKI-1) | GI50 (COLO 205) | GI50 (EKVX) | GI50 (HCC 2998) | GI50 (HCT-15) [µM] | GI50 (HL-60) | GI50 (HOP-62) | GI50 (IGROV-1) | GI50 (MDA-MB-435) | GI50 (MOLT-4) | GI50 (NCI-H23) | GI50 (NCI/ADR-RES) | GI50 (OVCAR-3) | GI50 (SF-268) | GI50 (SF-295) | GI50 (T47D) | GI50 (UO-31)
1 | CCOC(=O)c1sc2c(c1OC(=O)c1cccs1)c(=O)n(-c1ccccc1)c(=S)n2-c1ccccc1 | 10.6 µM (inactive) | 6.4 µM (inactive) | 15.8 µM (inactive) | 33.1 µM (inactive) | 17.3 µM (inactive) | 36.9 µM (inactive) | 16.6 µM (inactive) | 14 | 15.5 µM (inactive) | 21.1 µM (inactive) | 12.2 µM (inactive) | 11.5 µM (inactive) | 10.7 µM (inactive) | 15.8 µM (inactive) | 11.1 µM (inactive) | 24.7 µM (inactive) | 29.6 µM (inactive) | 53.2 µM (inactive) | 23.5 µM (inactive) | 0.175 µM (active)
2 | CN(C)Cc1cc(C(C)(C)C)ccc1-c1ccc(C(C)(C)C)cc1CN(C)C | > 100 µM (inactive) | 75.3 µM (inactive) | > 100 µM (inactive) | > 100 µM (inactive) | 64.3 µM (inactive) | 62.2 µM (inactive) | 10.2 µM (inactive) | > 100 | > 100 µM (inactive) | > 100 µM (inactive) | > 100 µM (inactive) | 84.3 µM (inactive) | > 100 µM (inactive) | > 100 µM (inactive) | > 100 µM (inactive) | 43.3 µM (inactive) | > 100 µM (inactive) | > 100 µM (inactive) | > 100 µM (inactive) | 81.3 µM (inactive)
